Key:
oat, wild [1] = assay: Test C postemergence; assay type: in vivo, Avena fatua; conditions: 10 days
How it was run: (§1)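 Visual injury score, 0–100 (100 = complete control), taken 10 days after treatment relative to untreated controls. Pre: directed spray onto soil over sown seeds. Post: foliar spray at one- to two-leaf stage, 2–10 cm. Solvent/surfactant formulation; loam–sand soil; greenhouse.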

barnyardgrass [2] = assay: Test C postemergence; assay type: in vivo, Echinochloa crusgalli; conditions: 10 days
How it was run: as §1

soybean [3] = assay: Test C postemergence; assay type: in vivo, Glycine max; conditions: 10 days
How it was run: as §1

kochia [4] = assay: Test C preemergence; assay type: in vivo, Bassia scoparia; conditions: 0 to 100 scale (0 no effect, 100 complete control); for Kochia plant response rating: preemergence
How it was run: as §1

sedge, umbrella = assay: Test D flooded paddy test; assay type: in vivo, Cyperus difformis; conditions: 250 g ai/ha, applied to paddy water, visual rating after 13 to 14 days, scale 0 to 100 (0 no effect, 100 complete control)
How it was run: (§2)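 Seedlings reached the 2-leaf stage, then pots were flooded to 3 cm over the soil surface. Compound was applied into the water, depth was maintained, and plants stayed in the greenhouse 13 to 14 days before visual scoring (0–100) relative to controls.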

oat, wild [5] = assay: Test C preemergence; assay type: in vivo, Avena fatua; conditions: 0 to 100 scale (0 no effect, 100 complete control); for Oat, Wild plant response rating: preemergence
How it was run: as §1

ragweed [6] = assay: Test C postemergence; assay type: in vivo, Ambrosia artemisiifolia; conditions: 10 days
How it was run: as §1

wheat [7] = assay: Test C preemergence; assay type: in vivo, Triticum aestivum; conditions: 0 to 100 scale (0 no effect, 100 complete control); for Wheat plant response rating: preemergence
How it was run: as §1

barnyardgrass [8] = assay: Test D flooded paddy test; assay type: in vivo, Echinochloa crus-galli; conditions: 250 g ai/ha, applied to paddy water, visual rating after 13 to 14 days, scale 0 to 100 (0 no effect, 100 complete control)
How it was run: as §2

corn [9] = assay: Test C preemergence; assay type: in vivo, Zea mays; conditions: 0 to 100 scale (0 no effect, 100 complete control); for Corn plant response rating: preemergence
How it was run: as §1

green foxtail [10] = assay: Test C postemergence; assay type: in vivo, Setaria viridis; conditions: 10 days
How it was run: as §1

pigweed, palmer [11] = assay: Test C preemergence; assay type: in vivo, Amaranthus palmeri; conditions: 0 to 100 scale (0 no effect, 100 complete control); for Pigweed, Palmer plant response rating: preemergence
How it was run: as §1

soybean [12] = assay: Test C preemergence; assay type: in vivo, Glycine max; conditions: 0 to 100 scale (0 no effect, 100 complete control); for Soybean plant response rating: preemergence
How it was run: as §1

green foxtail [13] = assay: Test C preemergence; assay type: in vivo, Setaria viridis; conditions: 0 to 100 scale (0 no effect, 100 complete control); for Foxtail, Green plant response rating: preemergence
How it was run: as §1

rice = assay: Test D flooded paddy test; assay type: in vivo, Oryza sativa; conditions: 250 g ai/ha, applied to paddy water, visual rating after 13 to 14 days, scale 0 to 100 (0 no effect, 100 complete control)
How it was run: as §2

galium = assay: Test C postemergence; assay type: in vivo, Galium aparine; conditions: 10 days
How it was run: as §1

barnyardgrass [14] = assay: Test C preemergence; assay type: in vivo, Echinochloa crusgalli; conditions: 0 to 100 scale (0 no effect, 100 complete control); for Plant response rating, Barnyardgrass: Preemergence, 500 g ai/ha, visual rating after 10 days; for Barnyardgrass plant response rating: preemergence, 125 g ai/ha
How it was run: as §1

ragweed [15] = assay: Test C preemergence; assay type: in vivo, Ambrosia artemisiifolia; conditions: 0 to 100 scale (0 no effect, 100 complete control); for Ragweed plant response rating: preemergence
How it was run: as §1

wheat [16] = assay: Test C postemergence; assay type: in vivo, Triticum aestivum; conditions: 10 days
How it was run: as §1

kochia [17] = assay: Test C postemergence; assay type: in vivo, Bassia scoparia; conditions: 10 days
How it was run: as §1

corn [18] = assay: Test C postemergence; assay type: in vivo, Zea mays; conditions: 10 days
How it was run: as §1

ryegrass, Italian [19] = assay: Test C postemergence; assay type: in vivo, Lolium multiflorum; conditions: 10 days
How it was run: as §1

blackgrass [20] = assay: Test C postemergence; assay type: in vivo, Alopecurus myosuroides; conditions: 10 days
How it was run: as §1

ducksalad = assay: Test D flooded paddy test; assay type: in vivo, Heteranthera limosa; conditions: 250 g ai/ha, applied to paddy water, visual rating after 13 to 14 days, scale 0 to 100 (0 no effect, 100 complete control)
How it was run: as §2

horseweed = assay: Test C postemergence; assay type: in vivo, Erigeron canadensis; conditions: 10 days
How it was run: as §1

pigweed, palmer [21] = assay: Test C postemergence; assay type: in vivo, Amaranthus palmeri; conditions: 10 days
How it was run: as §1

blackgrass [22] = assay: Test C preemergence; assay type: in vivo, Alopecurus myosuroides; conditions: 0 to 100 scale (0 no effect, 100 complete control); for Plant response rating, Blackgrass: Preemergence, 500 g ai/ha, visual rating after 10 days; for Blackgrass plant response rating: Test C, preemergence, 125 g ai/ha
How it was run: as §1

ryegrass, Italian [23] = assay: Test C preemergence; assay type: in vivo, Lolium multiflorum; conditions: 0 to 100 scale (0 no effect, 100 complete control); for Ryegrass, Italian plant response rating: preemergence
How it was run: as §1

[24] = 125 g ai/ha, postemergence, 0 to 100 scale, 0 no effect, 100 complete control
[25] = Postemergence, 500 g ai/ha, visual 0 to 100 scale (0 no effect, 100 complete control)
[26] = Preemergence, 500 g ai/ha, visual rating after 10 days

Cc1ccc(-n2cnc(C3(C)COC3)n2)cc1C(=O)N1C[C@H](C)Oc2c(Cl)cccc21 [Compound 275]
10: Plant response rating, Rice (Flood) (rice) | Plant response rating, Corn (corn [18]; [24])
90: Plant response rating, Barnyardgrass (barnyardgrass [2]; [25]) | Oat, Wild plant response rating (oat, wild [5]; 500 g ai/ha) | Plant response rating, Foxtail, Green (green foxtail [10]; [25]) | Plant response rating, Corn (corn [18]; [25]) | Plant response rating, Ryegrass, Italian (ryegrass, Italian [19]; [24]) | Plant response rating, Blackgrass (blackgrass [20]; [25]) | Plant response rating, Horseweed (horseweed; [25]) | Plant response rating, Blackgrass (blackgrass [22])
100: Plant response rating, Soybean (soybean [3]; [24]) | Kochia plant response rating (kochia [4]; 500 g ai/ha) | Pigweed, Palmer plant response rating (pigweed, palmer [11]; 500 g ai/ha) | Pigweed, Palmer plant response rating (pigweed, palmer [11]; Test C, 125 g ai/ha) | Soybean plant response rating (soybean [12]; 500 g ai/ha) | Foxtail, Green plant response rating (green foxtail [13]; 500 g ai/ha) | Foxtail, Green plant response rating (green foxtail [13]; Test C, 125 g ai/ha) | Plant response rating, Galium (galium; [24]) | Plant response rating, Galium (galium; [25]) | Plant response rating, Barnyardgrass (barnyardgrass [14]) | Barnyardgrass plant response rating (barnyardgrass [14]; Test C) | Ryegrass, Italian plant response rating (ryegrass, Italian [23]; 500 g ai/ha)
35: Plant response rating, Barnyardgrass (Flood) (barnyardgrass [8])
60: Plant response rating, Oat, Wild (oat, wild [1]; [24]) | Corn plant response rating (corn [9]; 500 g ai/ha) | Ragweed plant response rating (ragweed [15]; Test C, 125 g ai/ha) | Plant response rating, Horseweed (horseweed; [24])
70: Wheat plant response rating (wheat [7]; 500 g ai/ha) | Plant response rating, Foxtail, Green (green foxtail [10]; [24])
40: Plant response rating, Wheat (wheat [16]; [24])
80: Kochia plant response rating (kochia [4]; Test C, 125 g ai/ha) | Plant response rating, Ragweed (ragweed [6]; [24]) | Soybean plant response rating (soybean [12]; Test C, 125 g ai/ha) | Ragweed plant response rating (ragweed [15]; 500 g ai/ha) | Plant response rating, Kochia (kochia [17]; [24]) | Plant response rating, Blackgrass (blackgrass [20]; [24]) | Plant response rating, Pigweed, Palmer (pigweed, palmer [21]; [24]) | Ryegrass, Italian plant response rating (ryegrass, Italian [23]; Test C, 125 g ai/ha)
85: Plant response rating, Ducksalad (Flood) (ducksalad)
95: Plant response rating, Sedge, Umbrella (Flood) (sedge, umbrella)
50: Plant response rating, Barnyardgrass (barnyardgrass [2]; [24]) | Oat, Wild plant response rating (oat, wild [5]; Test C, 125 g ai/ha) | Blackgrass plant response rating (blackgrass [22])
30: Wheat plant response rating (wheat [7]; Test C, 125 g ai/ha) | Corn plant response rating (corn [9]; Test C, 125 g ai/ha)

Cc1c(F)cc(-n2cnc(C(C)C)n2)cc1C(=O)N1C[C@H](C)Oc2c(Cl)cccc21 [Compound 151]
60: Plant response rating, Corn (corn [18]; [24]) | Plant response rating, Ryegrass, Italian (ryegrass, Italian [19]; [24])
40: Plant response rating, Barnyardgrass (Flood) (barnyardgrass [8]) | Plant response rating, Horseweed (horseweed; [24])
100: Plant response rating, Barnyardgrass (barnyardgrass [2]; [25]) | Plant response rating, Soybean (soybean [3]; [24]) | Plant response rating, Soybean (soybean [3]; [25]) | Plant response rating, Kochia (kochia [4]; [26]) | Kochia plant response rating (kochia [4]; Test C, 125 g ai/ha) | Plant response rating, Pigweed, Palmer (pigweed, palmer [11]; [26]) | Pigweed, Palmer plant response rating (pigweed, palmer [11]; Test C, 125 g ai/ha) | Plant response rating, Foxtail, Green (green foxtail [13]; [26]) | Foxtail, Green plant response rating (green foxtail [13]; Test C, 125 g ai/ha) | Plant response rating, Galium (galium; [24]) | Plant response rating, Galium (galium; [25]) | Plant response rating, Barnyardgrass (barnyardgrass [14]) | Plant response rating, Kochia (kochia [17]; [25]) | Plant response rating, Pigweed, Palmer (pigweed, palmer [21]; [25])
75: Plant response rating, Sedge, Umbrella (Flood) (sedge, umbrella)
30: Oat, Wild plant response rating (oat, wild [5]; Test C, 125 g ai/ha) | Ragweed plant response rating (ragweed [15]; Test C, 125 g ai/ha) | Plant response rating, Wheat (wheat [16]; [25])
45: Plant response rating, Rice (Flood) (rice)
70: Plant response rating, Barnyardgrass (barnyardgrass [2]; [24]) | Plant response rating, Ragweed (ragweed [6]; [24])
80: Plant response rating, Wheat (wheat [7]; [26]) | Wheat plant response rating (wheat [7]; Test C, 125 g ai/ha) | Plant response rating, Foxtail, Green (green foxtail [10]; [24]) | Plant response rating, Ragweed (ragweed [15]; [26]) | Plant response rating, Ryegrass, Italian (ryegrass, Italian [19]; [25]) | Plant response rating, Blackgrass (blackgrass [20]; [24]) | Plant response rating, Blackgrass (blackgrass [20]; [25]) | Plant response rating, Horseweed (horseweed; [25]) | Ryegrass, Italian plant response rating (ryegrass, Italian [23]; Test C, 125 g ai/ha)
20: Plant response rating, Oat, Wild (oat, wild [1]; [24]) | Corn plant response rating (corn [9]; Test C, 125 g ai/ha) | Plant response rating, Wheat (wheat [16]; [24])
90: Plant response rating, Oat, Wild (oat, wild [5]; [26]) | Plant response rating, Ragweed (ragweed [6]; [25]) | Plant response rating, Foxtail, Green (green foxtail [10]; [25]) | Plant response rating, Soybean (soybean [12]; [26]) | Barnyardgrass plant response rating (barnyardgrass [14]) | Plant response rating, Kochia (kochia [17]; [24]) | Plant response rating, Corn (corn [18]; [25]) | Plant response rating, Pigweed, Palmer (pigweed, palmer [21]; [24]) | Plant response rating, Blackgrass (blackgrass [22]) | Plant response rating, Ryegrass, Italian (ryegrass, Italian [23]; [26])
50: Plant response rating, Oat, Wild (oat, wild [1]; [25]) | Plant response rating, Corn (corn [9]; [26]) | Soybean plant response rating (soybean [12]; Test C, 125 g ai/ha) | Plant response rating, Ducksalad (Flood) (ducksalad) | Blackgrass plant response rating (blackgrass [22])
